Test results as given in the NIST ThermoML archive (doi:10.1021/je060271a).
“And” between values parts separate entries of the source, which are not always exact repeats. Identical values can stand only once.

Settings: Liquid, Vibrating tube method

CCCCCC(=O)OCC(COC(=O)CCCCC)(COC(=O)CCCCC)COC(=O)CCCCC [pentaerythritol tetrahexanoate]
Settings | mass density
283.15 K, 30604 kPa | 1021 kg/m3
283.15 K, 30620 kPa | 1020.9 kg/m3
283.15 K, 30636 kPa | 1020.9 kg/m3
283.15 K, 30656 kPa | 1021.1 kg/m3
283.15 K, 30672 kPa | 1020.9 kg/m3
283.15 K, 30688 kPa | 1021 kg/m3
283.15 K, 30708 kPa | 1020.9 kg/m3
283.15 K, 30724 kPa | 1021 kg/m3
283.15 K, 30740 kPa | 1021 kg/m3
283.15 K, 30757 kPa | 1021 kg/m3
283.15 K, 30777 kPa | 1020.9 kg/m3
283.15 K, 30793 kPa | 1021.1 kg/m3
283.15 K, 30809 kPa | 1021 kg/m3
283.15 K, 30829 kPa | 1021 kg/m3
283.15 K, 30846 kPa | 1021.1 kg/m3
283.15 K, 30882 kPa | 1021 kg/m3
283.15 K, 30934 kPa | 1021.1 kg/m3
283.15 K, 30951 kPa | 1021.1 kg/m3
283.15 K, 30967 kPa | 1021.1 kg/m3
283.15 K, 30987 kPa | 1021 kg/m3
283.15 K, 31003 kPa | 1021.3 kg/m3
283.15 K, 31020 kPa | 1021.2 kg/m3
283.15 K, 31040 kPa | 1021.1 kg/m3
283.15 K, 31056 kPa | 1021.2 kg/m3
283.15 K, 31073 kPa | 1021.1 kg/m3
283.15 K, 31093 kPa | 1021.1 kg/m3
283.15 K, 31110 kPa | 1021.1 kg/m3
283.15 K, 31127 kPa | 1021.2 kg/m3
283.15 K, 31147 kPa | 1021.2 kg/m3
283.15 K, 31164 kPa | 1021.2 kg/m3
283.15 K, 31180 kPa | 1021.2 kg/m3
283.15 K, 31201 kPa | 1021.3 kg/m3
283.15 K, 31217 kPa | 1021.3 kg/m3
283.15 K, 31234 kPa | 1021.3 kg/m3
283.15 K, 31254 kPa | 1021.3 kg/m3
283.15 K, 31272 kPa | 1021.2 kg/m3
283.15 K, 31289 kPa | 1021.2 kg/m3
283.15 K, 31306 kPa | 1021.2 kg/m3
283.15 K, 31327 kPa | 1021.3 kg/m3
283.15 K, 31343 kPa | 1021.3 kg/m3
283.15 K, 31361 kPa | 1021.3 kg/m3
283.15 K, 31378 kPa | 1021.3 kg/m3
283.15 K, 31398 kPa | 1021.4 kg/m3
283.15 K, 31415 kPa | 1021.3 kg/m3
283.15 K, 31432 kPa | 1021.4 kg/m3
283.15 K, 31453 kPa | 1021.5 kg/m3
283.15 K, 31470 kPa | 1021.4 kg/m3
283.15 K, 31488 kPa | 1021.5 kg/m3
283.15 K, 31509 kPa | 1021.5 kg/m3
283.15 K, 31528 kPa | 1021.5 kg/m3
283.15 K, 31545 kPa | 1021.6 kg/m3
283.15 K, 31562 kPa | 1021.5 kg/m3
283.15 K, 31583 kPa | 1021.3 kg/m3
283.15 K, 31600 kPa | 1021.4 kg/m3
283.15 K, 31618 kPa | 1021.5 kg/m3
283.15 K, 31639 kPa | 1021.5 kg/m3
283.15 K, 31656 kPa | 1021.5 kg/m3
283.15 K, 31674 kPa | 1021.5 kg/m3
283.15 K, 31691 kPa | 1021.5 kg/m3
283.15 K, 31712 kPa | 1021.6 kg/m3
283.15 K, 31730 kPa | 1021.4 kg/m3
283.15 K, 31748 kPa | 1021.6 kg/m3
283.15 K, 31770 kPa | 1021.4 kg/m3
283.15 K, 31787 kPa | 1021.5 kg/m3
283.15 K, 31805 kPa | 1021.5 kg/m3
283.15 K, 31823 kPa | 1021.6 kg/m3
283.15 K, 31845 kPa | 1021.5 kg/m3
283.15 K, 31863 kPa | 1021.6 kg/m3
283.15 K, 31881 kPa | 1021.5 kg/m3
283.15 K, 31902 kPa | 1021.5 kg/m3
283.15 K, 31920 kPa | 1021.4 kg/m3
283.15 K, 31942 kPa | 1021.6 kg/m3
283.15 K, 31960 kPa | 1021.6 kg/m3
283.15 K, 31978 kPa | 1021.7 kg/m3
283.15 K, 31996 kPa | 1021.6 kg/m3
283.15 K, 32019 kPa | 1021.5 kg/m3
283.15 K, 32037 kPa | 1021.7 kg/m3
283.15 K, 32055 kPa | 1021.8 kg/m3
283.15 K, 32077 kPa | 1021.7 kg/m3
283.15 K, 32096 kPa | 1021.6 kg/m3
283.15 K, 32115 kPa | 1021.8 kg/m3
283.15 K, 32133 kPa | 1021.7 kg/m3
283.15 K, 32156 kPa | 1021.6 kg/m3
283.15 K, 32349 kPa | 1021.8 kg/m3
283.15 K, 32369 kPa | 1021.8 kg/m3
283.15 K, 32386 kPa | 1021.7 kg/m3
283.15 K, 32399 kPa | 1021.8 kg/m3
283.15 K, 32420 kPa | 1021.7 kg/m3
283.15 K, 32436 kPa | 1021.9 kg/m3
283.15 K, 32455 kPa | 1022 kg/m3
283.15 K, 32472 kPa | 1022 kg/m3
283.15 K, 32488 kPa | 1021.9 kg/m3
283.15 K, 32506 kPa | 1021.9 kg/m3
283.15 K, 32526 kPa | 1021.9 kg/m3
283.15 K, 32543 kPa | 1022 kg/m3
283.15 K, 32560 kPa | 1021.9 kg/m3
283.15 K, 32575 kPa | 1022 kg/m3
283.15 K, 32587 kPa | 1021.9 kg/m3
283.15 K, 32601 kPa | 1022 kg/m3
283.15 K, 32613 kPa | 1021.9 kg/m3
283.15 K, 32626 kPa | 1021.9 kg/m3
283.15 K, 32639 kPa | 1022 kg/m3
283.15 K, 32654 kPa | 1022 kg/m3
283.15 K, 32665 kPa | 1022 kg/m3
283.15 K, 32672 kPa | 1022 kg/m3
283.15 K, 32680 kPa | 1022 kg/m3
283.15 K, 32688 kPa | 1022.1 kg/m3
283.15 K, 32694 kPa | 1022 kg/m3
283.15 K, 32703 kPa | 1022 kg/m3
283.15 K, 32708 kPa | 1022.1 kg/m3
283.15 K, 32709 kPa | 1022 kg/m3
283.15 K, 32711 kPa | 1021.8 kg/m3
283.15 K, 32715 kPa | 1022 kg/m3
283.15 K, 32718 kPa | 1022 kg/m3
283.15 K, 32720 kPa | 1022 kg/m3 and 1022.1 kg/m3
283.15 K, 32723 kPa | 1021.9 kg/m3 and 1022 kg/m3
283.15 K, 32725 kPa | 1021.9 kg/m3
283.15 K, 32726 kPa | 1022 kg/m3
283.15 K, 32853 kPa | 1022 kg/m3
283.15 K, 32977 kPa | 1022.2 kg/m3
283.15 K, 32981 kPa | 1022.1 kg/m3
283.15 K, 32985 kPa | 1022.1 kg/m3
283.15 K, 32990 kPa | 1022.1 kg/m3
283.15 K, 32992 kPa | 1022.2 kg/m3
283.15 K, 32997 kPa | 1022.1 kg/m3
283.15 K, 33001 kPa | 1022.1 kg/m3
283.15 K, 33005 kPa | 1022.2 kg/m3
283.16 K, 90.5 kPa | 1004.1 kg/m3
283.16 K, 90.7 kPa | 1004.2 kg/m3
283.16 K, 90.8 kPa | 1004.2 kg/m3
283.16 K, 90.9 kPa | 1004.1 kg/m3 and 1004.3 kg/m3
283.16 K, 91.2 kPa | 1004.3 kg/m3 and 1004.2 kg/m3
283.16 K, 91.4 kPa | 1004.1 kg/m3 and 1004.2 kg/m3 and 1004 kg/m3
283.16 K, 91.5 kPa | 1004.1 kg/m3 and 1004.2 kg/m3
283.16 K, 91.7 kPa | 1004.2 kg/m3 and 1004.1 kg/m3
283.16 K, 91.9 kPa | 1004.2 kg/m3
283.16 K, 92.1 kPa | 1004.3 kg/m3
283.16 K, 92.2 kPa | 1004.2 kg/m3 and 1004.1 kg/m3
283.16 K, 92.4 kPa | 1004.2 kg/m3
283.16 K, 92.6 kPa | 1004.2 kg/m3
283.16 K, 92.8 kPa | 1004.1 kg/m3 and 1004.2 kg/m3 and 1004 kg/m3
283.16 K, 93.1 kPa | 1004.2 kg/m3 and 1004.1 kg/m3
283.16 K, 93.3 kPa | 1004.1 kg/m3 and 1004.2 kg/m3
283.16 K, 93.6 kPa | 1004.2 kg/m3
283.16 K, 93.8 kPa | 1004.1 kg/m3 and 1004.2 kg/m3
